Test results published in ChEMBL document CHEMBL1201862, “PubChem BioAssay data set” (2004).
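How tested: cells in 96-well plates exposed to compound for 48 hours at five concentrations. GI50 marks 50% less growth.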 Active and inactive are the calls of the source. Rule as the data show it: active = GI50 up to about 1.1 µM and inactive = higher.

Experiments:
Experiment in all cases: DTP human tumour cell line panel, 48 h
[1] = system: SK-OV-3
[2] = system: HL-60
[3] = system: A498
[4] = system: XF498
[5] = system: IGROV-1
[6] = system: RXF 393
[7] = system: SNB-19
[8] = system: DLD-1
[9] = system: OVCAR-4
[10] = system: SNB-75
[11] = system: DMS-114
[12] = system: DMS-273
[13] = system: U-251
[14] = system: EKVX
[15] = system: HCT-15
[16] = system: SF-268
[17] = system: UACC-257
[18] = system: HOP-92
[19] = system: LOX IMVI
[20] = system: SN12C
[21] = system: SK-MEL-28
[22] = system: SW-620
[23] = system: UACC-62
[24] = system: A549
[25] = system: 786-0
[26] = system: SF-295
[27] = system: RXF 631
[28] = system: HCT-116
[29] = system: K562
[30] = system: HOP-62
[31] = system: M19-MEL
[32] = system: CAKI-1
[33] = system: TK-10
[34] = system: KM-20L2
[35] = system: SNB-78
[36] = system: ACHN
[37] = system: HT-29
[38] = system: NCI-H23
[39] = system: NCI-H522
[40] = system: CCRF-CEM
[41] = system: LXFL 529
[42] = system: NCI-H226
[43] = system: SR
[44] = system: RPMI-8226
[45] = system: OVCAR-8
[46] = system: Malme-3M
[47] = system: KM12
[48] = system: M14
[49] = system: NCI-H460
[50] = system: SK-MEL-5
[51] = system: UO-31
[52] = system: COLO 205
[53] = system: MOLT-4
[54] = system: OVCAR-5
[55] = system: HOP-18
[56] = system: SK-MEL-2
[57] = system: SF-539
[58] = system: HCC 2998
[59] = system: OVCAR-3

Structure (SMILES): CCN(CC)CCSc1c2ccccc2nc2c(OC)ccc(OC)c12
- GI50 [1]: 36 µM (inactive)
- GI50 [2]: 1.73 µM (inactive)
- GI50 [3]: 13.3 µM (inactive)
- GI50 [4]: 2.42 µM (inactive)
- GI50 [5]: 6.32 µM (inactive)
- GI50 [6]: 1.94 µM (inactive)
- GI50 [7]: 43.6 µM (inactive)
- GI50 [8]: 1.99 µM (inactive)
- GI50 [9]: 10.7 µM (inactive)
- GI50 [10]: > 49.7 µM (inactive)
- GI50 [11]: 1.63 µM (inactive)
- GI50 [12]: 5.08 µM (inactive)
- GI50 [13]: 30.3 µM (inactive)
- GI50 [14]: > 56.6 µM (inactive)
- GI50 [15]: 3.15 µM
- GI50 [16]: 15.1 µM (inactive)
- GI50 [17]: 3.78 µM (inactive)
- GI50 [18]: 2.36 µM (inactive)
- GI50 [19]: 4.81 µM (inactive)
- GI50 [20]: 5.73 µM (inactive)
- GI50 [21]: 2.94 µM (inactive)
- GI50 [22]: 2.08 µM (inactive)
- GI50 [23]: 3.77 µM (inactive)
- GI50 [24]: 29.3 µM (inactive)
- GI50 [25]: 4.13 µM (inactive)
- GI50 [26]: 33.4 µM (inactive)
- GI50 [27]: 2.93 µM (inactive)
- GI50 [28]: 3.04 µM (inactive)
- GI50 [29]: 2.94 µM (inactive)
- GI50 [30]: 31.8 µM (inactive)
- GI50 [31]: 8 µM (inactive)
- GI50 [32]: 3.1 µM (inactive)
- GI50 [33]: 4.97 µM (inactive)
- GI50 [34]: 3.39 µM (inactive)
- GI50 [35]: 5.31 µM (inactive)
- GI50 [36]: 5.61 µM (inactive)
- GI50 [37]: 4.59 µM (inactive)
- GI50 [38]: 14.6 µM (inactive)
- GI50 [39]: 3.26 µM (inactive)
- GI50 [40]: 2.13 µM (inactive)
- GI50 [41]: 2.3 µM (inactive)
- GI50 [42]: 29.5 µM (inactive)
- GI50 [43]: 1.1 µM (active)
- GI50 [44]: 2.23 µM (inactive)
- GI50 [45]: 2.43 µM (inactive)
- GI50 [46]: > 41.2 µM (inactive)
- GI50 [47]: 5.79 µM (inactive)
- GI50 [48]: 2.44 µM (inactive)
- GI50 [49]: 10.8 µM (inactive)
- GI50 [50]: 4.66 µM (inactive)
- GI50 [51]: 12.8 µM (inactive)
- GI50 [52]: 2.72 µM (inactive)
- GI50 [53]: 1.65 µM (inactive)
- GI50 [54]: 29.9 µM (inactive)

Structure (SMILES): CC(=O)NC1=C(C)C(=O)c2c(nc3n2CCC3O)C1=O (configuration not stated)
- GI50 [1]: > 61.7 µM (inactive)
- GI50 [2]: 8.28 µM (inactive)
- GI50 [3]: > 100 µM (inactive)
- GI50 [4]: 18.2 µM (inactive)
- GI50 [5]: > 54.2 µM (inactive)
- GI50 [55]: > 100 µM (inactive)
- GI50 [6]: 21.5 µM (inactive)
- GI50 [56]: 19.5 µM (inactive)
- GI50 [7]: > 100 µM (inactive)
- GI50 [8]: 39.5 µM (inactive)
- GI50 [9]: 13.6 µM (inactive)
- GI50 [10]: > 100 µM (inactive)
- GI50 [11]: 5.56 µM (inactive)
- GI50 [57]: 24.4 µM (inactive)
- GI50 [12]: 44.8 µM (inactive)
- GI50 [13]: 33.1 µM (inactive)
- GI50 [14]: 24.7 µM (inactive)
- GI50 [15]: > 100 µM
- GI50 [16]: 34.8 µM (inactive)
- GI50 [58]: 54 µM (inactive)
- GI50 [17]: 26.3 µM (inactive)
- GI50 [18]: 18.6 µM (inactive)
- GI50 [19]: 29.7 µM (inactive)
- GI50 [20]: 37.3 µM (inactive)
- GI50 [21]: > 76.4 µM (inactive)
- GI50 [22]: 44.4 µM (inactive)
- GI50 [23]: 20.1 µM (inactive)
- GI50 [24]: > 64 µM (inactive)
- GI50 [25]: 43.4 µM (inactive)
- GI50 [26]: > 100 µM (inactive)
- GI50 [28]: 23.7 µM (inactive)
- GI50 [29]: 19.1 µM (inactive)
- GI50 [30]: > 100 µM (inactive)
- GI50 [31]: 25.6 µM (inactive)
- GI50 [32]: > 100 µM (inactive)
- GI50 [33]: > 100 µM (inactive)
- GI50 [34]: > 72.1 µM (inactive)
- GI50 [35]: 31.3 µM (inactive)
- GI50 [36]: > 100 µM (inactive)
- GI50 [37]: > 100 µM (inactive)
- GI50 [38]: 35.4 µM (inactive)
- GI50 [39]: 23.7 µM (inactive)
- GI50 [40]: 4.24 µM (inactive)
- GI50 [41]: 19.6 µM (inactive)
- GI50 [42]: 27.4 µM (inactive)
- GI50 [43]: 9.46 µM (inactive)
- GI50 [44]: 18.2 µM (inactive)
- GI50 [45]: 20.4 µM (inactive)
- GI50 [46]: 19.1 µM (inactive)
- GI50 [47]: > 100 µM (inactive)
- GI50 [48]: > 100 µM (inactive)
- GI50 [49]: > 87.7 µM (inactive)
- GI50 [50]: 51.9 µM (inactive)
- GI50 [51]: > 100 µM (inactive)
- GI50 [52]: > 100 µM (inactive)
- GI50 [59]: 10.8 µM (inactive)
- GI50 [53]: 3.44 µM (inactive)
- GI50 [54]: > 64.3 µM (inactive)
